Measured values reported in ChEMBL document CHEMBL3627608, “Crystal structures of human RIP2 kinase catalytic domain complexed with ATP-competitive inhibitors: Foundations for understanding inhibitor selectivity” (Bioorg Med Chem, 2015).

How the values were obtained:
[1] = target: G protein-coupled receptor kinase 6 (Homo sapiens) (UniProt P43250); test: Inhibition of GRK6 (unknown origin) at 10 uM after 120 mins P33 radiolabeled kinase activity assay
[2] = target: T1, Mitogen-activated protein kinase kinase kinase 2 (Homo sapiens) (UniProt Q9Y2U5); test: Inhibition of MEKK2 (unknown origin) at 10 uM after 120 mins P33 radiolabeled kinase activity assay
T1 sequence (whole entry): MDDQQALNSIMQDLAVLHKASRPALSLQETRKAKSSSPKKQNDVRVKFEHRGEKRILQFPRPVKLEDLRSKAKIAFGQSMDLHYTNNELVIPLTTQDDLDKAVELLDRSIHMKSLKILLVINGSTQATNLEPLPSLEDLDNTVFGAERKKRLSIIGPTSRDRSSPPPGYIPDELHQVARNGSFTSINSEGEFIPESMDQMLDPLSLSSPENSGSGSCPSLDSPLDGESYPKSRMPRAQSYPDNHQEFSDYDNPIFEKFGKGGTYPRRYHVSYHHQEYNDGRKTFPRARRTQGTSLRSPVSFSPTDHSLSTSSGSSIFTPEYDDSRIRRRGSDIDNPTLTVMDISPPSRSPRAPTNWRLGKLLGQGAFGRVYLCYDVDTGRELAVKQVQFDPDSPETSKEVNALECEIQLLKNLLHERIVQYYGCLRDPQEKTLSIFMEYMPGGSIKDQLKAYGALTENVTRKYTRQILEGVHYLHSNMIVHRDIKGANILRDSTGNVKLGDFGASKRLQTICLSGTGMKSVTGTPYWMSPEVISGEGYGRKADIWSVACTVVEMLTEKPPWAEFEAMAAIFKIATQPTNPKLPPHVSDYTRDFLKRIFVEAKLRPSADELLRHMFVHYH

[3] = target: Serine/threonine-protein kinase 38 (Homo sapiens) (UniProt Q15208); test: Inhibition of STK38 (unknown origin) at 10 uM after 120 mins P33 radiolabeled kinase activity assay
Sequence of Serine/threonine-protein kinase 38 (Homo sapiens) (Q15208 2-465 limits assumed): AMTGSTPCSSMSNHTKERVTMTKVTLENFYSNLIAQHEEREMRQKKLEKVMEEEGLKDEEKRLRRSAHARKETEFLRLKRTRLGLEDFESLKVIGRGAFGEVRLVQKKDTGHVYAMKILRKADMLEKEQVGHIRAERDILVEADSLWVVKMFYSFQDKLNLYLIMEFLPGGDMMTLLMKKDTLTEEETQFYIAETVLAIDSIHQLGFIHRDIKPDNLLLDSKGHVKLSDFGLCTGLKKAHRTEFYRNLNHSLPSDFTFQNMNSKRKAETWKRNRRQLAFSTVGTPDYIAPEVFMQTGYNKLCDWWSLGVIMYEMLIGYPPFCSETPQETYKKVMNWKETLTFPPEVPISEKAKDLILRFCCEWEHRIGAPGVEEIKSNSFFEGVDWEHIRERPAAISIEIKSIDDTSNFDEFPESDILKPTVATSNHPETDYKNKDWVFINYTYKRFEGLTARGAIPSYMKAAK

[4] = target: T2, Dual specificity mitogen-activated protein kinase kinase 7 (Homo sapiens) (UniProt O14733); test: Inhibition of MKK7 (unknown origin) at 10 uM after 120 mins P33 radiolabeled kinase activity assay
T2 sequence (whole entry): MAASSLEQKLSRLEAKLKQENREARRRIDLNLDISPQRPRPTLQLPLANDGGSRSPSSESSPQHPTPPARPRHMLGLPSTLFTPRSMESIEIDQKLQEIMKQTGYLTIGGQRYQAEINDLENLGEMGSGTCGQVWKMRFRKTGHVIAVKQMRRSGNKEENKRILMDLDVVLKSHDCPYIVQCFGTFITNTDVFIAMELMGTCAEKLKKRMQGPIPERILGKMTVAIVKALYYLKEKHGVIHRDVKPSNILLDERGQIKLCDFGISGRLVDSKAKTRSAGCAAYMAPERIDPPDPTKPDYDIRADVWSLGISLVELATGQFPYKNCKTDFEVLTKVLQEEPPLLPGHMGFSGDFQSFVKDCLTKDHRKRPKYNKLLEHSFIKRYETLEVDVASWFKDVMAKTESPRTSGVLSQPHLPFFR

[5] = target: Ribosomal protein S6 kinase alpha-3 (Homo sapiens) (UniProt P51812); test: Inhibition of RSK2 (unknown origin) at 10 uM after 120 mins P33 radiolabeled kinase activity assay
Sequence of Ribosomal protein S6 kinase alpha-3 (Homo sapiens) (P51812 whole entry): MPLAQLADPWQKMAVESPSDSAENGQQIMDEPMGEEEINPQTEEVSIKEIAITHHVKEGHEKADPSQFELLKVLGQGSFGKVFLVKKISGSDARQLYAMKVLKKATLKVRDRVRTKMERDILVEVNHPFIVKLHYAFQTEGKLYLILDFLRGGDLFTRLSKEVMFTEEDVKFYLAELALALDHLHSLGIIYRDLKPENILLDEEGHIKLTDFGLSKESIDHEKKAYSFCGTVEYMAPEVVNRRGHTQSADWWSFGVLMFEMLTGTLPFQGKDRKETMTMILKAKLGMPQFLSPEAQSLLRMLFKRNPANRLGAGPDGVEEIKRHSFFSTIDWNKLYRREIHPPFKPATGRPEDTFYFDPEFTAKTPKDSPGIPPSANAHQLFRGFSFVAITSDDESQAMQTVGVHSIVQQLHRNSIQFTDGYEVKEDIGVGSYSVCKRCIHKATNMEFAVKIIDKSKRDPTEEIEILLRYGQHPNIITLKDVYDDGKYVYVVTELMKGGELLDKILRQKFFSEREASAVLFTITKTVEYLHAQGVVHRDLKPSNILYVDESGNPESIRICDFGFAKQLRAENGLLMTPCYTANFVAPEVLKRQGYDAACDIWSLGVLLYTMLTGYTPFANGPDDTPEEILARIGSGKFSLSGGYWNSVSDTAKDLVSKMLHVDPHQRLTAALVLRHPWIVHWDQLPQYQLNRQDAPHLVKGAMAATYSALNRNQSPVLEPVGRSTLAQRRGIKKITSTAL

[6] = target: T3, Rhodopsin kinase GRK7 (Homo sapiens) (UniProt Q8WTQ7); test: Inhibition of GRK7 (unknown origin) at 10 uM after 120 mins P33 radiolabeled kinase activity assay
T3 sequence (whole entry): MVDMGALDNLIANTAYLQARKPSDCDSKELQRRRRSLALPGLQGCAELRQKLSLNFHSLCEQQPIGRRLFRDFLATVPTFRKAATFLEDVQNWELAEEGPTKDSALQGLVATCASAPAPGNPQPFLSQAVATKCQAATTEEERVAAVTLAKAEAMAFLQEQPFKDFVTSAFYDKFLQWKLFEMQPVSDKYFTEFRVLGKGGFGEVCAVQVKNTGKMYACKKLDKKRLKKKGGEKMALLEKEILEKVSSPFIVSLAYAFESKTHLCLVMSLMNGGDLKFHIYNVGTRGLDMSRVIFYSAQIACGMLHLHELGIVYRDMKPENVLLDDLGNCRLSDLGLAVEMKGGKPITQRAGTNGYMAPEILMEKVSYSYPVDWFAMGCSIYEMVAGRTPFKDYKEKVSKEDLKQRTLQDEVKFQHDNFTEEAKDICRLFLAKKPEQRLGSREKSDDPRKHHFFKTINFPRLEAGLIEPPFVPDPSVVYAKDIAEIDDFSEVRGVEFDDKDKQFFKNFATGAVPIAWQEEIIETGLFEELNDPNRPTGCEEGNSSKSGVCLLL

[7] = target: T4, Myotonin-protein kinase (Homo sapiens) (UniProt Q09013); test: Inhibition of DMPK (unknown origin) at 10 uM after 120 mins P33 radiolabeled kinase activity assay
T4 sequence (whole entry): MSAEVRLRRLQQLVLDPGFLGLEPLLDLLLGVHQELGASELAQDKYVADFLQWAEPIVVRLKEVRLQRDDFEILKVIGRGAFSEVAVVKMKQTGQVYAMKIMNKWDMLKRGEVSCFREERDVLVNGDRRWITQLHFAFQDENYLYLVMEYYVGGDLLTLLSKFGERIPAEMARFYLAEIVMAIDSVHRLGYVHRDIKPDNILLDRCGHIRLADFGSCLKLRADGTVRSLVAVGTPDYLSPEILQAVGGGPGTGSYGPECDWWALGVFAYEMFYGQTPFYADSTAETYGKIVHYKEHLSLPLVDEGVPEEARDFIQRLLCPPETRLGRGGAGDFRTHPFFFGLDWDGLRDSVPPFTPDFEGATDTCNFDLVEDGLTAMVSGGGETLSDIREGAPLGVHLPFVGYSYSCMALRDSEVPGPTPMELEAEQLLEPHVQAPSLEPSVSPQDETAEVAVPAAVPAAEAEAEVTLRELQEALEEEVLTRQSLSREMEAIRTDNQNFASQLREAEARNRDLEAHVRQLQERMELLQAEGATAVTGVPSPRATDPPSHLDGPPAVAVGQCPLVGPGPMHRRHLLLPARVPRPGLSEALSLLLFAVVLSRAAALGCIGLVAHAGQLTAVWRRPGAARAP

[8] = target: SRSF protein kinase 2 (Homo sapiens) (UniProt P78362); test: Inhibition of SRPK2 (unknown origin) at 10 uM after 120 mins P33 radiolabeled kinase activity assay
Sequence of SRSF protein kinase 2 (Homo sapiens) (P78362 whole entry, looked up): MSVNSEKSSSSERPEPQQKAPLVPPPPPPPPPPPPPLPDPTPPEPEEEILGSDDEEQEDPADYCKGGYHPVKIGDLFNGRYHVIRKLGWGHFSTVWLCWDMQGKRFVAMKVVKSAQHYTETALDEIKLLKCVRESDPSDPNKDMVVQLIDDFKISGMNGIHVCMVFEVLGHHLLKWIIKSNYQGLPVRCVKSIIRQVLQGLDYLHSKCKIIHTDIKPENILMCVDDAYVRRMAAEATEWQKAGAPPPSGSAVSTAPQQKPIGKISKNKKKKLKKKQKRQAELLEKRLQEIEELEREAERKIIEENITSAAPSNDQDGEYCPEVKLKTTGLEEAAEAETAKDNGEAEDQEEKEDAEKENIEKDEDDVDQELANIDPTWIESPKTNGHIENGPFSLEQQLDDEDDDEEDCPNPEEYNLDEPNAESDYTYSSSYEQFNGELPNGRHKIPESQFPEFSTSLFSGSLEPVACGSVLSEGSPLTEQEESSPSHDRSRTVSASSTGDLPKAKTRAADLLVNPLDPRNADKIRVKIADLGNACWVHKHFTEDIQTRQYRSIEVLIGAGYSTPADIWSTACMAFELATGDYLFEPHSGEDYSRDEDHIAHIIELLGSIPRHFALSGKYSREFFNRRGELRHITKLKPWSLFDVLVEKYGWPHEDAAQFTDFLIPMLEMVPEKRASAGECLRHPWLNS

Sequence of G protein-coupled receptor kinase 6 (Homo sapiens) (P43250 whole entry, looked up): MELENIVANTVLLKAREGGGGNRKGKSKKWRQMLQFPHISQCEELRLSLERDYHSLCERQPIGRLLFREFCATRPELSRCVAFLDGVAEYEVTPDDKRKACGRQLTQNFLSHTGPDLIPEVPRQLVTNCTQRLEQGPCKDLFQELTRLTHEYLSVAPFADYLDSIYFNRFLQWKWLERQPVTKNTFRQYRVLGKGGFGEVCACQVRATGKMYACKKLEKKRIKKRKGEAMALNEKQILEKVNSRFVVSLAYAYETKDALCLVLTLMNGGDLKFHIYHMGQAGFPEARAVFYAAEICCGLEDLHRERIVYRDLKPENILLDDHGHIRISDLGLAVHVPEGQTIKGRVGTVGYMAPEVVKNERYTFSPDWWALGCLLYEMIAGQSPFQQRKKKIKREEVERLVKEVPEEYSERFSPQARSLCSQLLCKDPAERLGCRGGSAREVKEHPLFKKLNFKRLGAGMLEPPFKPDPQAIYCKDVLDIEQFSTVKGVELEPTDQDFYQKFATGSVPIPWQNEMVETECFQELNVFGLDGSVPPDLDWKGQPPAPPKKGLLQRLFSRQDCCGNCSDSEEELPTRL

`COCCNC(=O)c1ccc2c(c1)nc(-c1cnc(-c3ccc(Cl)cc3)[nH]1)n2CCOC` was tested, and the inhibition [1] was -7.62%, the inhibition [2] was 16.7% and the inhibition [3] was 3.88%. It also gave an inhibition [4] of 2%, an inhibition [5] of 5.36% and an inhibition [6] of 2.32%. For the same compound, the inhibition [7] was -6.45% and the inhibition [8] was 7.04%.
`CS(=O)(=O)c1cccc(Nc2nccc(-c3sc(N4CCOCC4)nc3-c3cccc(NS(=O)(=O)c4c(F)cccc4F)c3)n2)c1` gave an inhibition [1] of -5.6%, an inhibition [2] of 55% and an inhibition [3] of 27.4%. The inhibition [4] was 7.17%, the inhibition [5] was 66.8% and the inhibition [6] was 25.3%. It also gave an inhibition [7] of -2.69% and an inhibition [8] of 17.7%.
`CC(C)(C)c1cc(NC(=O)Nc2ccc(Oc3ccncc3)cc2)no1` gave an inhibition [1] of -8.96%, an inhibition [2] of 23.3% and an inhibition [3] of 3.87%. It also gave an inhibition [4] of 22.7%, an inhibition [5] of 46.3% and an inhibition [6] of 2.1%. It also gave an inhibition [7] of -2.09% and an inhibition [8] of 18%.
